{"source": "paper PMC8333425", "about": "“Discovery of a dual Ras and ARF6 inhibitor from a GPCR endocytosis screen” (Nature Communications, 2021)", "key": {"ARF1": {"molecular_target": "T1, ARF1 (Homo sapiens, UniProt P84077)", "T1 construct": "expressed in transfected cells; host or cells: HEK293SL", "assay": "GST-GGA3-PBD pull-down of AT1R-mediated HA-ARF1 activation", "assay_type": "cell-based", "settings": "for ARF1-GTP/ARF1: GST-GGA3-PBD, listed as Comp 21", "experimental": "Activation of ARF1, ARF6, Ras, and Rho were assessed by using GST pull-down assays. HEK293SL cells were transiently transfected with 3 µg AT1R-flag only (Ras and Rho) or along with 500 ng HA-ARF6 (ARF6) or HA-ARF1 (ARF1). Forty-eight hours later, the HEK293 or MDA-MB-231 cells were serum-starved for 4 h with DMEM containing 20 mM HEPES then pretreated with DMSO or Rasarfin (50 µM) for 30 min. Cells were then stimulated with 1 µM AngII or 100 ng/ml EGF for 0 and 2 min. Cells were then washed once with ice-cold PBS and lysed for 30 min at 4 °C in 300 µl of lysis buffer (pH 7.5, 50 mM Tris-HCl, 140 mM NaCl, 5 mM MgCl2, 10% glycerol (v/v), 1% Nonidet P-40 (v/v), 1 mM dithiothreitol) supplemented with protease inhibitors (1 mM phenylmethyl-sulfonyl fluoride (PMSF), 10 µg/ml leupeptin, 5 µg/ml aprotinin, 1 µg/ml pepstatin A) and phosphatase inhibitors (20 mM NaF, 0.025 mM pervanadate). The samples were cleared by centrifugation and 30 µl (cell lysates) was kept for assessing total protein contents. The remaining was transferred to fresh tubes with 20 µg of either GST, GST-GGA3-PBD, GST-Raf1-RBD or GST-Rhotekin-RBD coupled to glutathione resin and rotated for 1–2 h at 4 °C. Beads were washed twice with lysis buffer and proteins were eluted in 25 μl 2x laemmli buffer by heating at 65 °C for 15 min. Proteins were resolved on 14% SDS-PAGE, transferred to nitrocellulose membranes, and immunoblotted for HA, Ras, RhoA, H-Ras, or ARF6. ImageLab 5.2 software was used to quantify the digital blots as fold of the amount of pulled down protein over total protein. Uncropped coomassie gels and immunoblots are provided in the Source Data file."}, "[1]": {"tested_on": "β-arrestin2 recruitment to AT1R", "assay": "BRET recruitment of β-arrestin2 to AT1R", "assay_type": "cell-based, human", "settings": "for AngII-promoted BRET, β-arrestin2 (Barr2) recruitment to AT1R: Comp 21 50 μM, individual experiments", "experimental": "(§1) HEK293SL cells were seeded at a density of 7.5 × 10^5 cells per 100-mm dish and 24 h later, transiently transfected as such. For receptor internalization experiments, cells were transfected with 0.12 μg AT1R-RlucII, B2R-RlucII, or β2AR-RlucII and 0.48 μg of either rGFP-CAAX (to assess removal from the PM) or rGFP-FYVE (to assess accumulation in the endosomes). For β-arrestin recruitment assays, cells were transfected with 0.48 μg of receptor-YFP along with 0.12 μg of β-arrestin-RlucII. For β-arrestin/AP-2 binding experiments, cells were transfected with 1 μg Flag-AT1R, 1 μg β2-Adaptin-YFP, and 0.12 μg β-arrestin2-RlucII. For G protein activation, cells were transfected with 3 μg of sp-Flag-AT1R along with either 4.5 μg of the Gαq-polycistronic BRET sensor or 0.24 μg of the Gαi3-RlucII and 0.6 μg of GFP10-Gγ2 and Gβ1 sensors or 0.12 μg PKN-RBD-RlucII and 0.48 μg of rGFP-CAAX. For PKC activation, cells were transfected with 3 μg of sp-Flag-AT1R and 0.18 μg of the PKC sensor. For GTPase activation experiments, cells were transfected with 1 μg Flag-AT1R, 0.48 μg of rGFP-CAAX, and either 0.12 μg of GGA3-PBD-RlucII, PAK-CRIB-RlucII or Raf-RBD-RlucII. For biosensor validation experiments, cells were additionally transfected with 500 ng Flag-K-Ras-WT, Flag-K-Ras-G12V, Flag-K-Ras-SOS-CAAX, HA-ARF6-WT, HA-ARF6-T27N, Myc-Rac1-WT, Myc-Rac1-Q61L or Myc-Rac1-T17N. For PI3K/Akt activation experiments, cells were transfected with 0.48 μg of rGFP-CAAX and 0.12 μg of Akt (PH)-RlucII. After 18 h of transfection, the media was replaced and cells were divided for subsequent experiments. Cells were detached and seeded onto poly-L-ornithine-coated 96-well flat white bottom plates (BrandTech Scientific) at a density of 2.5 × 10^4 cells per well in media. The next day, cells were washed once with Tyrode’s buffer (140 mM NaCl, 2.7 mM KCl, 1 mM CaCl2, 12 mM NaHCO3, 5.6 mM D-glucose, 0.5 mM MgCl2, 0.37 mM NaH2PO4, 25 mM HEPES, pH 7.4) and left in Tyrode’s buffer. For kinetics of β-arrestin recruitment or β-arrestin binding to receptor and AP-2 experiments, cells were serum starved for 30 min, pretreated with 21 (50 µM) or Barbadin (100 µM) for 30 min, stimulated with 100 nM AngII or 1 µM BK and BRET signals were monitored at indicated times using a Victor X Light plate reader (PerkinElmer). Coelenterazine H (final concentration of 5 µM) was added 3–5 min prior to BRET measurements. Filter set was 460/80 nm and 535/30 nm for detecting the RlucII Renilla luciferase (donor) and YFP (acceptor) light emissions, respectively. The BRET ratio was determined by calculating the ratio of the light emitted by YFP over the light emitted by the RlucII. For G protein activation, cells were serum starved, pretreated with compounds for 30 min, stimulated with 100 nM AngII for 2 min (Gαq, Gαi3, and Rho sensors) or 5 min (PKC sensor). For the kinetics of GTPase and PI3K/Akt activation, cells were serum starved, pretreated with 21 (50 µM) or Wortmannin (200 nM) for 30 min, stimulated with ligand (100 nM AngII or 100 ng/ml EGF) and BRET signals were monitored at indicated times. For concentration-response curves, cells were serum-starved, pretreated with various concentrations of compounds for 30 min and stimulated with ligand (100 nM AngII, 1 µM BK, 10 µM Isoproterenol (Iso) or 100 ng/ml EGF) in Tyrode’s buffer for 30 min for receptor internalization, 10 min for ARF6, 2 min for Rac and Rho activation and 5 min for Ras activation and PI3K/Akt activation. BRET signals were monitored using a Synergy2 (BioTek) microplate reader and coelenterazine 400a (final concentrations of 5 µM) added 3–5 min prior to BRET measurements. Filter set was 410/80 nm and 515/30 nm for detecting the RlucII Renilla luciferase (donor) and rGFP/GFP10 (acceptor) light emissions, respectively. The BRET ratio was determined by calculating the ratio of the light emitted by rGFP/GFP10 over the light emitted by the RlucII."}, "AT1R": {"tested_on": "AT1R", "assay": "BRET recording of AT1R removal from the PM (AT1R-RlucII / rGFP-CAAX)", "assay_type": "cell-based, human", "settings": "for AngII-promoted BRET, AT1R removal from the PM: Comp 21 50 μM, individual experiments", "experimental": "as §1, with “For concentration-response curves, cells were serum-starved, pretreated with various concentrations of compounds for 30 min and stimulated with ligand (100 nM AngII, 1 µM BK, 10 µM Isoproterenol (Iso) or 100 ng/ml EGF) in Tyrode’s buffer for 30 min for receptor internalization, 10 min for ARF6, 2 min for Rac and Rho activation and 5 min for Ras activation and PI3K/Akt activation.” left out, “Filter set was 410/80 nm and 515/30 nm for detecting the RlucII Renilla luciferase (donor) and rGFP/GFP10 (acceptor) light emissions, respectively.” left out"}}, "note": "Several values for one entry are separate records, joined by “and”; a condition that tells them apart may be missing. Equal entries are not always repeated."}
{"smiles": "CC(C)C(=O)N1CCN(c2ccc(NC(=O)c3cc4ccccc4o3)cc2Cl)CC1", "note": "[Compound 21]", "values": [{"measurement": "effect on AT1R-dependent ARF1 activation", "setting": "ARF1; 50 μM", "value": "no effect"}, {"measurement": "ARF1-GTP/ARF1", "setting": "ARF1; AngII", "value": "0.143 and 0.2667 and 0.2223"}, {"measurement": "ARF1-GTP/ARF1", "setting": "ARF1; Ctrl", "value": "0.07407 and 0.04303 and 0.06878"}, {"measurement": "β-arrestin2 recruitment to AT1R at the PM", "setting": "[1]; 50 μM", "value": "did not preclude"}, {"measurement": "AngII-promoted BRET, β-arrestin2 (Barr2) recruitment to AT1R", "setting": "[1]; time 0 min", "value": 0}, {"measurement": "AngII-promoted BRET, β-arrestin2 (Barr2) recruitment to AT1R", "setting": "[1]; time 5 min", "value": "0.1545 and 0.1824 and 0.1119"}, {"measurement": "AngII-promoted BRET, β-arrestin2 (Barr2) recruitment to AT1R", "setting": "[1]; time 10 min", "value": "0.1572 and 0.2061 and 0.1651"}, {"measurement": "AngII-promoted BRET, β-arrestin2 (Barr2) recruitment to AT1R", "setting": "[1]; time 15 min", "value": "0.1598 and 0.2035 and 0.1848"}, {"measurement": "AngII-promoted BRET, β-arrestin2 (Barr2) recruitment to AT1R", "setting": "[1]; time 30 min", "value": "0.165 and 0.1904 and 0.1659"}, {"measurement": "AngII-promoted BRET, β-arrestin2 (Barr2) recruitment to AT1R", "setting": "[1]; time 60 min", "value": "0.1705 and 0.209 and 0.1941"}, {"measurement": "AngII-bound AT1R removal from the PM", "setting": "AT1R; 50 μM", "value": "slowed down and decreased the extent of AngII-bound AT1R removal from the PM"}, {"measurement": "AngII-promoted BRET, AT1R removal from the PM", "setting": "AT1R; time 0 min", "value": 0}, {"measurement": "AngII-promoted BRET, AT1R removal from the PM", "setting": "AT1R; time 5 min", "value": "-0.084 and -0.3663 and -0.1717 and -0.07933"}, {"measurement": "AngII-promoted BRET, AT1R removal from the PM", "setting": "AT1R; time 15 min", "value": "-0.132 and -0.4823 and -0.452 and -0.243"}, {"measurement": "AngII-promoted BRET, AT1R removal from the PM", "setting": "AT1R; time 30 min", "value": "-0.166 and -0.515 and -0.398 and -0.3753"}]}
